# Laboratory results as given in publication PMC12051620, “Molecular basis underlying the specificity of an antagonist AA92593 for mammalian melanopsins” (The Journal of Biological Chemistry, 2025).
# Assays:
# [1] = target: T1, human melanopsin (Homo sapiens, UniProt Q9UHM6); assay: GsX GloSensor assay with Gsα/i11; assay type: cell-based; set-up: the C-terminal amino acid residues (94, 140, 200, 214, 296, and 308 residues); expressed in transfected cells; host or cells: COS-1; conditions: 16.7 μM AA92593; COS-1 cells
# T1 sequence (Q9UHM6 1-384 limits assumed): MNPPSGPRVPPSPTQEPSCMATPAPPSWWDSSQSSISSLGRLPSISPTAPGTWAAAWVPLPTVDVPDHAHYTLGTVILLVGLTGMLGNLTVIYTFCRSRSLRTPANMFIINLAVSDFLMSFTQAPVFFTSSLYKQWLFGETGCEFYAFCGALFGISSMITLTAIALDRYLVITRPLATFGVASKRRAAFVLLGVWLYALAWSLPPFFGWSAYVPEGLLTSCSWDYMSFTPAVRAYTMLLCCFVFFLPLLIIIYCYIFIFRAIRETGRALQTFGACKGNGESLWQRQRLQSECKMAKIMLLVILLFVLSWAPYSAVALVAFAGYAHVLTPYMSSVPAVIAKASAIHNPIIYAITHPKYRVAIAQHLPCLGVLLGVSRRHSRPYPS
# From the text: (§1) Previous studies of human and mouse melanopsins reported that these melanopsins can activate not only Gq but Gs and Gi ([20], [21], [22]). Thus, we assessed the effect of AA92593 on Gsα WT or Gsα/i11 (with 11 C-terminal sequence of Giα) using the GsX GloSensor assay. In agreement with the promiscuous G protein-coupling of melanopsins, we observed light-dependent increase of GloSensor luminescence in COS-1 cells expressing Gsα or Gsα/i11 with human/mouse melanopsins (Fig. 1, G–J).
# (§2) For GloSensor assay, opsins, GloSensor assay sensor (coded by pGlo-22F), and NanoBiT-tagged G proteins were transiently expressed in COS-1 cells (kindly provided from Dr David Farrens, Oregon Health and Science University) using PEI as described previously ([24], [52]). […] For GFP-fluorescence microscopy, a 35-mm cell culture dish (IWAKI) was transfected with 2 μg melanopsin-GFP plasmid and 8 μg PEI in 400 μl Opti-mem and 1.2 ml D-MEM. […]
# (§3) The transfected COS-1 cells were incubated at 37 °C, 5% CO2 for 2 days, and the medium was aspirated and exchanged with 50 μl of HBSS (145 mM NaCl, 10 mM D-glucose, 5 mM KCl, 1 mM MgCl2, 1.7 mM CaCl2, 1.5 mM NaHCO3, 10 mM Hepes, pH 7.4), containing 33.3, 20, 10, 2, 0.2, 0.02, 0.002, or 0 μM AA92593, 0.5% dimetyl sulfoxide (DMSO), and 4% (vol/vol) GloSensor cAMP reagent stock solution. […] Luminescence was measured using GM-2000 or GM-3510 microplate reader (Promega). […]
# [2] = target: T2, mouse melanopsin (Mus musculus, UniProt Q9QXZ9); assay: GsX GloSensor assay with Gsα/i11; assay type: cell-based; conditions: 16.7 μM AA92593; COS-1 cells
# T2 construct: the C-terminal amino acid residues (94, 140, 200, 214, 296, and 308 residues); expressed in transfected cells; host or cells: COS-1
# T2 sequence (Q9QXZ9 1-381 limits assumed): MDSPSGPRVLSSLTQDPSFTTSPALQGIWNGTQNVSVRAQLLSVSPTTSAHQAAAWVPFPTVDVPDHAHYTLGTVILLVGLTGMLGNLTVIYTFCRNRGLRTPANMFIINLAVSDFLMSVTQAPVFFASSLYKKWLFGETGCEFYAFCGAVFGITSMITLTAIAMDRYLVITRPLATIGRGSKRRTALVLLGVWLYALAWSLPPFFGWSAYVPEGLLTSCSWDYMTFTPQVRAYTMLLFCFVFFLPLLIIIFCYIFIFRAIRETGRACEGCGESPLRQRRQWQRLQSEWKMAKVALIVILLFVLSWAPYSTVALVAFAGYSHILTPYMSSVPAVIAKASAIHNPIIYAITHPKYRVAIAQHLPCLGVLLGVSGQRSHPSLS
# From the text: as §1, §2, §3
compound,measurement,setting,value
COc1ccc(S(=O)(=O)N2CCCCC2)cc1C [AA92593],effect on melanopsin-induced cAMP responses via Gsα/i11,[1],can suppress
same,effect on melanopsin-induced cAMP responses via Gsα/i11,[2],can suppress
